Measurements from PubChem BioAssay (NCI).
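Briefly, cells in 96-well plates were exposed to five compound concentrations for 48 h, and endpoints were estimated by linear interpolation. At the GI50, growth is halved. TGI: total growth inhibition.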

Assays:
Experiment in all cases: NCI-60 cell line screen, 48 h
NCI/ADR-RES ovarian = test system: NCI/ADR-RES ovarian
EKVX NSCLC = test system: EKVX NSCLC
K-562 leukemia = test system: K-562 leukemia
MDA-MB-231 breast = test system: MDA-MB-231 breast
PC-3 prostate = test system: PC-3 prostate
RPMI-8226 leukemia = test system: RPMI-8226 leukemia
T-47D breast = test system: T-47D breast
CCRF-CEM leukemia = test system: CCRF-CEM leukemia
SNB-75 CNS = test system: SNB-75 CNS
MALME-3M melanoma = test system: MALME-3M melanoma

| SMILES | GI50 (NCI/ADR-RES ovarian) [µM] | TGI (NCI/ADR-RES ovarian) [µM] | GI50 (EKVX NSCLC) [µM] | TGI (EKVX NSCLC) [µM] | GI50 (K-562 leukemia) [µM] | TGI (K-562 leukemia) [µM] | GI50 (MDA-MB-231 breast) [µM] | TGI (MDA-MB-231 breast) [µM] | GI50 (PC-3 prostate) [µM] | TGI (PC-3 prostate) [µM] | GI50 (RPMI-8226 leukemia) [µM] | TGI (RPMI-8226 leukemia) [µM] | GI50 (T-47D breast) [µM] | TGI (T-47D breast) [µM] | GI50 (CCRF-CEM leukemia) [µM] | TGI (CCRF-CEM leukemia) [µM] | GI50 (SNB-75 CNS) [µM] | TGI (SNB-75 CNS) [µM] | GI50 (MALME-3M melanoma) [µM] | TGI (MALME-3M melanoma) [µM] |
| --- | --- | --- | --- | --- | --- | --- | --- | --- | --- | --- | --- | --- | --- | --- | --- | --- | --- | --- | --- | --- |
| c1ccc(-c2oc(-c3ccccc3)c(CN3CCCCC3)c2CN2CCCCC2)cc1 | 4.17 | 15.9 | 2.99 | 14.2 | 1.94 | 6.51 | 1.77 | 6.06 | 2.34 | 7.73 | 1.66 | 4.08 | 2.71 | 11.7 | 2.54 | 9.97 | 4.13 | 18.6 | 1.75 | 3.65 |
| Cn1cc(/C=C\[N+](=O)[O-])c2ccccc21 | > 100 | > 100 | > 100 | > 100 | 34.8 | > 100 | 23.4 | 78.8 | 35.5 | > 100 | 16.1 | 53.4 | 55.6 | > 100 | 25.2 | > 100 | 26.2 | 75.8 | > 100 | > 100 |
| Oc1ccc(Cl)cc1C(c1cc(Cl)ccc1O)C(Cl)(Cl)Cl | 1.99 | 4.67 | 1.84 | 5.8 | 2.28 | 5.59 | 1.71 | 3.86 | 1.79 | 4.76 | 2.72 | 8.4 | 3.32 | 12.4 | 3.2 | 8.02 | 2.17 | 9.57 | 1.5 | 3.91 |
| Cc1cc(=O)oc2ccc(OC/C=C3\CCC(=O)O3)cc12 | 13.7 | 32.4 | 18.7 | 45.6 | 7.79 | > 100 | 13.2 | 27 | 3.59 | 21.2 | 1.81 | 11.2 | 2.6 | 19.6 | 2.61 | 7.96 | 1.87 | 12.3 | 1.16 | 16.9 |
| COc1ccc2nc3cc(Cl)ccc3c(NCCCNCCO)c2c1 | 4.03 | 19.8 | 1.17 | 4.19 | 0.383 | 2.4 | 0.47 | 2.71 | 0.544 | 2.54 | 0.497 | 2.74 | 0.625 | 3.41 | 0.476 | 2.28 | 0.744 | 2.26 | 1.21 | 2.82 |
| CN(C)c1ccc(/C=C\c2ccnc3ccccc23)cc1 | 2.93 | > 58.5 | 2.63 | > 37.9 | > 21.1 | > 100 | 11.3 | > 73.9 | 17.9 | > 100 | 4.02 | > 85 | 2.48 | > 100 | 5.13 | > 100 | 1.44 | 8.97 | 17.7 | > 89.2 |
| C[C@@]1([C@H](OC(=O)c2ccccc2)C(N)=O)CO1 | 16.4 | 44.3 | 24.2 | 62.4 | 5.67 | > 100 | 14.9 | 41.8 | 16.6 | 52.1 | 26.2 | > 100 | 30.4 | 83.3 | 19.7 | > 100 | 22.8 | 50.6 | 28.3 | 58 |
| CCN(CC)c1ccc(/C=C/C(=O)c2ccc(Nc3nc(Nc4ccccc4)nc(Nc4ccccc4)n3)cc2)cc1 | 4.3 | > 100 | 4.07 | > 100 | – | – | 13.5 | > 100 | 3.2 | 18.6 | 3.26 | > 100 | 2.65 | 41 | 3.15 | > 100 | 3.9 | 64.8 | 9.52 | > 100 |
| O=C1CC2OCC=C3CN4CCC56c7ccccc7N1C5C2C3CC46O (configuration not stated) | – | > 100 | – | > 100 | – | > 100 | – | > 100 | – | > 100 | – | > 100 | – | > 100 | – | > 100 | – | > 100 | – | > 100 |
| O=C1Nc2ccc(Cl)cc2/C1=C\c1c(-c2ccc(Cl)cc2)nc2sc(C3CC3)nn12 | 2.85 | 10.2 | – | – | 7.37 | 24.7 | 2.67 | 13 | 5 | 19.6 | 18.1 | > 100 | 2.41 | 22 | 19.8 | > 100 | 1.38 | 3.19 | 2.9 | 8.79 |
| O=C1NC(=NCc2ccccc2Cl)S/C1=C\c1ccc2ncccc2c1 | > 25 | > 25 | – | – | 12.7 | > 25 | > 25 | > 25 | > 25 | > 25 | 17 | > 25 | > 25 | > 25 | 11.2 | > 25 | 0.785 | > 21.8 | > 20.7 | > 25 |
| CSc1ccc(C2=C(c3ccccc3)C(=O)OC2)cc1 | 0.35 | > 34.9 | 5.76 | > 100 | 0.101 | > 100 | 0.425 | 20.9 | 0.884 | 21.1 | – | – | 1.22 | > 100 | 0.508 | 2.85 | 5.67 | > 100 | 3.29 | 64.1 |
